The subject of one data set is Sindbis virus. Description: Antiviral CPE assay, Sindbis virus in Vero cells. The settings on record: Sindbis virus, Vero. The class given is cell-based.
In data set [1] the test system is Influenza A virus A/Ned/378/05A (H1N1). Briefly: Antiviral CPE assay, Influenza A (H1N1) in MDCK cells. Type of data set: cell-based. The settings on record: Influenza A virus, H1N1, MDCK.
Data set [2] concerns Vesicular stomatitis virus. Briefly: microbe, parasite or virus in culture. The settings on record: Vesicular stomatitis virus, HEp-2, read-out: Antiviral EC50 Vesicular stomatitis virus. Type of data set: cell-based.
In data set [3] the test system is Influenza B virus B/Ned/537/05. Description: Antiviral CPE assay, Influenza B in MDCK cells. To be noted: Influenza B virus; MDCK cell cultures. Type of data set: cell-based.
Data set [4] has as its system Coxsackie virus B4. Description: Antiviral CPE assay, Coxsackie virus B4 in HEp-2 cells. The settings on record: Enterovirus B, B4, HEp-2. The class given is cell-based.
Data set [5] is described as follows: Cytotoxicity in HEp-2 cell cultures (MTS). To be noted: human.
The test system of a further data set is Punta Toro virus. Briefly: Antiviral CPE assay, Punta Toro virus in Vero cells. The class given is cell-based. To be noted: Punta Toro virus, Vero.
A further data set concerns Yellow Fever virus. Description: microbe, parasite or virus in culture. The class given is cell-based. To be noted: Yellow fever virus, Vero, read-out: Antiviral EC50 Yellow Fever virus, Vero cell cultures.
Data set [6] is described as follows: Cytotoxicity in MT-4 cell cultures (MTS). To be noted: human, Cytotoxixity CC50, MT-4 cell cultures, MTS assay. (Tetrazolium dyes change colour on reduction, which living cells bring about.)
For another data set, the system named is Human Coronavirus (229E). Briefly: microbe, parasite or virus in culture. Type of data set: cell-based. The settings on record: for EC50: Human coronavirus 229E, HEL, read-out: Antiviral EC50 Human Coronavirus (229E).
Data set [7] deals with Herpes simplex virus-2 (G). Briefly: microbe, parasite or virus in culture. The class given is cell-based. The settings on record: Human alphaherpesvirus 2, HEL, read-out: Antiviral EC50 Herpes simplex virus-2 (G).
Data set [8] concerns Human immunodeficiency virus (IIIB). Briefly: Antiviral CPE assay, HIV-1 (IIIB) in MT-4 cells. To be noted: Human immunodeficiency virus 1, IIIB, MT4. The class given is cell-based, human immunodeficiency virus type 1 (HIV-1).
The subject of data set [9] is Coxsackie virus B4. Description: Antiviral CPE assay, Coxsackie virus B4 in Vero cells. Type of data set: cell-based. To be noted: Enterovirus B, B4, Vero.
In data set [10] the test system is Human immunodeficiency virus (ROD). Description: Antiviral CPE assay, HIV-2 (ROD) in MT-4 cells. Type of data set: cell-based. The settings on record: Human immunodeficiency virus 2, MT4.
The next data set has as its system Zika virus. Briefly: Antiviral CPE assay, Zika virus in Vero cells. The class given is cell-based. The settings on record: Zika virus, Vero.
The next data set deals with Adeno virus-2. Description: organism not typed. The settings on record: HEL, read-out: Antiviral EC50 Adeno virus-2. Type of data set: cell-based.
Another data set relates to Reo-virus-1. Description: Antiviral CPE assay, Reovirus-1 in Vero cells. Type of data set: cell-based. To be noted: Vero.
A short description of another data set: in vitro. The settings on record: dog.
The next data set concerns Vaccinia virus. Briefly: microbe, parasite or virus in culture. Type of data set: cell-based. The settings on record: Orthopoxvirus vaccinia, HEL, read-out: Antiviral EC50 Vaccinia virus.
Data set [11] is described as follows: Cytotoxicity in Vero cell cultures (MTS). The class given is cell-based, African green monkey. To be noted: African green monkey, Vero cells (kidney epithelial cells), uninfected, MTS assay, read-out: Cytotoxixity CC50.
In data set [12] the test system is Herpes simplex virus-1 (KOS). Description: microbe, parasite or virus in culture. Type of data set: cell-based. To be noted: Human alphaherpesvirus 1, HEL, read-out: Antiviral EC50 Herpes simplex virus-1 (KOS).
For data set [13], the system named is Respiratory syncytial virus. Briefly: Antiviral CPE assay, Respiratory syncytial virus in HEp-2 cells. The settings on record: human respiratory syncytial virus, HEp-2. Type of data set: cell-based.
Data set [14] relates to Influenza A virus A/HK/7/87 (H3N2). Briefly: Antiviral CPE assay, Influenza A (H3N2) in MDCK cells. Type of data set: cell-based. The settings on record: Influenza A virus, H3N2, MDCK.

Here are results for 13 molecules from article PMC9680032, “Conformationally Locked Carbocyclic Nucleosides Built on a 4′-Hydroxymethyl-3′-hydroxybicyclo[4.1.0]heptane Template. Stereoselective Synthesis and Antiviral Activity” (The Journal of Organic Chemistry, 2022).

Values after ≈ are worked out from the molar mass of the structure shown.

For orientation: EC50 means the concentration at which the effect is half-maximal. Consider `Cc1cn(C2CC=C(CO)C3CC32)c(=O)[nH]c1=O` (stereo not drawn) [Compound 19, 1-[(1′S,2′S,6′R)-5′-(hydroxymethyl)-bicyclo[4.1.0]hept-4′-en-2′-yl]-5-methylpyrimidine-2,4(1H,3H)-dione], for which the EC50 (with Sindbis virus; in data set [1]; in [2]; in data set [3]; with Coxsackie virus B4 [4]; in the data set on Punta Toro virus) was over 50 µg/mL throughout. Also, the EC50 is over 50 µg/mL in the data set on Yellow Fever virus; over 50 µg/mL in the data set with Human Coronavirus (229E); over 50 µg/mL in [7]; over 109 µg/mL in [8]; over 50 µg/mL in the data set with Coxsackie virus B4 [9]; over 109 µg/mL in data set [10]. Moreover, the EC50 (in the data set on Zika virus; in the data set with Adeno virus-2; in the data set with Reo-virus-1; in the data set on Vaccinia virus; in data set [12]; in data set [13]) was over 50 µg/mL each time. Also, the 50% effective concentration (EC50) in data set [14] is over 50 µg/mL. The CC50 in data set [5] was over 50 µg/mL; in [6], 109 µg/mL (≈ 440 µM); in “in vitro”, 18.6 µg/mL; in [11], over 50 µg/mL.

With `Nc1ccn([C@H]2CC[C@@H](CO)O2)c(=O)n1` [Zalcitabine, reference compound], the EC50 in the data set on Adeno virus-2 is 12 µM.

Turning to `OCc1cn(C2CC(O)C(CO)C3CC32)nn1` [Compound 3e, (1R,2R,3R,5S,6S)-2-(Hydroxymethyl)-5-[4″-(hydroxymethyl)-1H-1″,2″,3″-triazol-1‴-yl]bicyclo[4.1.0]heptan-3-ol], the EC50 (in the data set with Sindbis virus; in [1]; in data set [2]; in [3]; in the data set on Coxsackie virus B4 [4]; with Punta Toro virus) was over 50 µg/mL in each case. Moreover, the EC50 in the data set on Yellow Fever virus is over 50 µg/mL; in the data set on Human Coronavirus (229E) it was over 50 µg/mL; in [7] it was over 50 µg/mL; in data set [8], over 116 µg/mL; in the data set on Coxsackie virus B4 [9] it was over 50 µg/mL; in [10] it was over 116 µg/mL. In addition, the concentration for a half-maximal effect (EC50) (in the data set on Zika virus; with Adeno virus-2; with Reo-virus-1; in the data set with Vaccinia virus; in [12]; in [13]) was over 50 µg/mL each time. The molecule further had an EC50 in [14] of over 50 µg/mL. Further, the CC50 in [5] was over 50 µg/mL; in data set [6], at least 116 µg/mL; in “in vitro” it was over 50 µg/mL; in data set [11], over 50 µg/mL.

Consider `Cc1cn([C@H]2C[C@H](F)[C@@H](CO)O2)c(=O)[nH]c1=O` [Alovudine, reference compound], for which, in the data set on Adeno virus-2, the EC50 came to 0.4 µM.

In turn, `O=c1[nH]cnc2c1ncn2[C@H]1CC[C@@H](CO)O1` [Didanosine, reference compound] registered a CC50 in data set [6] of over 50 µg/mL. The values for the EC50 in [8] and in [10] were 17.9 µg/mL (≈ 76 µM) and 19.4 µg/mL (≈ 82.1 µM), respectively.

`Cc1cn([C@H]2C[C@H](N=[N+]=[N-])[C@@H](CO)O2)c(=O)[nH]c1=O` [Zidovudine, reference compound] displayed a CC50 in data set [6] of over 2 µg/mL. Further, the EC50 in [8] and in [10] was 0.002 µg/mL (≈ 0.00748 µM) each time.

For `Nc1nc2c(ncn2C2CC(O)C(CO)C3CC32)c(=O)[nH]1` (stereo not drawn) [Compound 1b, 2-Amino-9-[(1′S,2′S,4′R,5′S,6′S)-4′-hydroxy-5′-(hydroxymethyl) Bicyclo[4.1.0]hept-2′-yl]-1,9-dihydro-6H-purin-6-one], the EC50 (in the data set on Sindbis virus; in data set [1]; in data set [2]; in data set [3]; with Coxsackie virus B4 [4]; in the data set on Punta Toro virus) was over 50 µg/mL in each case. Further, the EC50 in the data set on Yellow Fever virus was over 50 µg/mL; in the data set on Human Coronavirus (229E), over 50 µg/mL; in data set [7], over 50 µg/mL; in data set [8], over 125 µg/mL; with Coxsackie virus B4 [9], over 50 µg/mL; in data set [10], over 125 µg/mL. The EC50 (in the data set on Zika virus; with Adeno virus-2; in the data set on Reo-virus-1; in the data set with Vaccinia virus; in data set [12]; in data set [13]) was over 50 µg/mL throughout. For the same molecule, the EC50 in data set [14] is over 50 µg/mL. The CC50 in data set [5] was over 50 µg/mL; in [6], over 125 µg/mL; in “in vitro”, over 50 µg/mL; in data set [11] it was over 50 µg/mL.

As for `NC(=O)c1cn(C2CC(O)C(CO)C3CC32)nn1` (stereo not drawn) [Compound 3a, 1-[(1′S,2′S,4′R,5′R,6′R)-4′-Hydroxy-5′-(hydroxymethyl)bicyclo[4.1.0]hept-2′-yl]-1H-1,2,3-triazole-4-carboxamide], the EC50 (with Sindbis virus; in [1]; in data set [2]; in data set [3]; in the data set on Coxsackie virus B4 [4]; in the data set with Punta Toro virus) was over 50 µg/mL in each case. For the same molecule, the EC50 with Yellow Fever virus is over 50 µg/mL; in the data set on Human Coronavirus (229E), over 50 µg/mL; in [7] it was over 50 µg/mL; in [8], over 125 µg/mL; in the data set on Coxsackie virus B4 [9], over 50 µg/mL; in [10], over 125 µg/mL. In addition, the EC50 (in the data set with Zika virus; with Adeno virus-2; in the data set with Reo-virus-1; in the data set with Vaccinia virus; in [12]; in [13]) was over 50 µg/mL throughout. In data set [14], this molecule came in with an EC50 of over 50 µg/mL. Also, the CC50 is over 50 µg/mL in [5], over 125 µg/mL in data set [6], over 50 µg/mL in “in vitro” and over 50 µg/mL in data set [11].

As for `COc1c(C)c2c(c(O)c1C/C=C(\C)CCC(=O)O)C(=O)OC2` [Mycophenolic acid, reference compound], the EC50 with Sindbis virus was 3.6 µM; in the data set on Punta Toro virus, over 100 µM; in the data set with Yellow Fever virus, 2.6 µM; in the data set with Coxsackie virus B4 [9], over 100 µM; in the data set with Zika virus, 0.2 µM; in the data set on Reo-virus-1, 7.1 µM. The CC50 in [11] is over 100 µM.

Turning to `NC(=O)c1ncn([C@@H]2O[C@H](CO)[C@@H](O)[C@H]2O)n1` [Ribavirin, reference compound], the EC50 amounted to 7.4 µM in data set [1]; 149 µM in data set [2]; 9.3 µM in [3]; 117 µM in the data set with Coxsackie virus B4 [4]; 6.7 µM in data set [13]; 6.4 µM in data set [14]. In addition, the CC50 in [5] is over 250 µM; in “in vitro” it was over 100 µM.

With `CC(=O)N[C@H]1[C@H]([C@H](O)[C@H](O)CO)OC(C(=O)O)=C[C@@H]1N=C(N)N` [Zanamivir, reference compound], the results for the EC50 in data set [1], in [3] and in data set [14] were 0.9 µM, 1.4 µM and 4.9 µM, respectively. The CC50 in “in vitro” is over 100 µM.

For `CC(N)C12CC3CC(CC(C3)C1)C2` (stereo not shown) [Rimantadine, reference compound], the EC50 in [1] was 88.8 µM; in data set [3], over 200 µM; in [14], 0.06 µM. The CC50 in the data set “in vitro” is over 200 µM.

B1: UDA: reference agent against Human Coronavirus (229E) in Table S1 (protein, UniProt P11218 24-372, looked up)
Lectin/endochitinase 1: QRCGSQGGGGTCPALWCCSIWGWCGDSEPYCGRTCENKCWSGERSDHRCGAAVGNPPCGQDRCCSVHGWCGGGNDYCSGSKCQYRCSSSVRGPRVALSGNSTANSIGNVVVTEPLFDQMFSHRKDCPSQGFYSYHSFLVAAESFPAFGTIGDVATRKREVAAFLAHISQATSGERSDVENPHAWGLCHINTTTVTENDFCTSSDWPCAAGKKYSPRGPIQLTHNFNYGLAGQAIGEDLIQNPDLVEKDPIISFKTALWFWMSQHDNKPSCHDIVLNANSAANRIPNKGVIGNIISRAFGHDDFAVRSSSIGFYKRYCDMLGVSYGHDLKYWFDNTPSSEFQRIQMRVAA
B1: the “Antiviral EC50 Human Coronavirus (229E)” value in the data set on Human Coronavirus (229E) (HEL cell cultures) turned out to be 1.2 µg/mL.
